The subject of the test is recombinant NL4-3 virus (Renilla luciferase in nef, Gag P373S; NLRluc) in MT-2 cells. In words: whole plant or invertebrate. The test is classed as cell-based, HIV. The conditions noted are these: serial dilutions of inhibitor, read-out: EC50. The procedure, abridged: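 Virus from 293T transfection, titered in MT-2 by luciferase. MT-2 (RPMI, 10% HI-FBS) infected ± inhibitor serial dilutions, 4-5 d. Readout: Dual Luciferase premix (lysis:reagent:Stop & Glo 2:1:1), immediate luminescence.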

Where [1] appears, read: Renilla, NL43, luciferase activity in cells infected for 4-5 days with NLRluc recombinants, class symbols (key in Table 1).
The mark [2] stands for this setting: Renilla, NL43, luciferase activity in cells infected for 4-5 days with NLRluc recombinants, numeric values.

Counter-ions that a name gives are not always drawn. Like-named read-outs stand apart in the source and are kept apart here. A value given as a limit tells only on which side of the number the result lay.

`C=C(C)[C@@H]1CC[C@]2(NCC3CCCN(C(=O)OC(C)(C)C)C3)CC[C@]3(C)[C@H](CC[C@@H]4[C@@]5(C)CC=C(c6ccc(C(=O)O)cc6)C(C)(C)[C@@H]5CC[C@]43C)[C@@H]12` (stereo partly drawn) [Example 153, 4-((1R,3aS,5aR,5bR,7aR,11aS,11bR,13aR,13bR)-3a-((1-(tert-butoxycarbonyl)piperidin-3-yl)methylamino)-5a,5b,8,8,11a-pentamethyl-1-(prop-1-en-2-yl)-2,3,3a,4,5,5a,5b,6,7,7a,8,11,11a,11b,12,13,13a,13b-octadecahydro-1H-cyclopenta[a]chrysen-9-yl)benzoic acid]: the EC50 (usually the concentration that produces a half-maximal response) under setting [1] is > 100 nM. `C=C(C)[C@@H]1CC[C@]2(NCCNS(C)(=O)=O)CC[C@]3(C)[C@H](CC[C@@H]4[C@@]5(C)CC=C(c6ccc(C(=O)O)cc6)C(C)(C)[C@@H]5CC[C@]43C)[C@@H]12` [Example B21, 4-((1R,3aS,5aR,5bR,7aR,11aS,11bR,13aR,13bR)-5a,5b,8,8,11a-pentamethyl-3a-((2-(methylsulfonamido)ethyl)amino)-1-(prop-1-en-2-yl)-2,3,3a,4,5,5a,5b,6,7,7a,8,11,11a,11b,12,13,13a,13b-octadecahydro-1H-cyclopenta[a]chrysen-9-yl)benzoic acid]: the half-maximal effective concentration (EC50) under setting [1] is < 100 nM. Same read-out and setting: for `C=C(C)[C@@H]1CC[C@]2(NC(=O)CN3CC[C@H](NC(=O)OC(C)(C)C)C3=O)CC[C@]3(C)[C@H](CC[C@@H]4[C@@]5(C)CC=C(c6ccc(C(=O)O)cc6)C(C)(C)[C@@H]5CC[C@]43C)[C@@H]12` [Example 109, 4-((1R,3aS,5aR,5bR,7aR,11aS,11bR,13aR,13bR)-3a-(2-((S)-3-(tert-butoxycarbonylamino)-2-oxopyrrolidin-1-yl)acetamido)-5a,5b,8,8,11a-pentamethyl-1-(prop-1-en-2-yl)-2,3,3a,4,5,5a,5b,6,7,7a,8,11,11a,11b,12,13,13a,13b-octadecahydro-1H-cyclopenta[a]chrysen-9-yl)benzoic acid] the value was < 100 nM; for `C=C(C)[C@@H]1CC[C@]2(NCCNCCC(=O)N(C)C)CC[C@]3(C)[C@H](CC[C@@H]4[C@@]5(C)CC=C(c6ccc(C(=O)O)cc6)C(C)(C)[C@@H]5CC[C@]43C)[C@@H]12` [Example 142, 4-((1R,3aS,5aR,5bR,7aR,11aS,11bR,13aR,13bR)-3a-(2-(3-(dimethylamino)-3-oxopropylamino)ethylamino)-5a,5b,8,8,11a-pentamethyl-1-(prop-1-en-2-yl)-2,3,3a,4,5,5a,5b,6,7,7a,8,11,11a,11b,12,13,13a,13b-octadecahydro-1H-cyclopenta[a]chrysen-9-yl)benzoic acid], < 100 nM. On to `C=C(C)[C@@H]1CC[C@]2(NCCN3CCN(S(=O)(=O)CCCC)CC3)CC[C@]3(C)[C@H](CC[C@@H]4[C@@]5(C)CC=C(c6ccc(C(=O)O)cc6)C(C)(C)[C@@H]5CC[C@]43C)[C@@H]12` [Example B39, 4-((1R,3aS,5aR,5bR,7aR,11aS,11bR,13aR,13bR)-3a-((2-(4-(butylsulfonyl)piperazin-1-yl)ethyl)amino)-5a,5b,8,8,11a-pentamethyl-1-(prop-1-en-2-yl)-2,3,3a,4,5,5a,5b,6,7,7a,8,11,11a,11b,12,13,13a,13b-octadecahydro-1H-cyclopenta[a]chrysen-9-yl)benzoic acid], for which the EC50 under setting [1] is < 100 nM. Same read-out and setting: with `CC(C)[C@@H]1CC[C@]2(NCCN(C)C)CC[C@]3(C)[C@H](CC[C@@H]4[C@@]5(C)CC[C@H](c6ccc(C(=O)O)cc6)C(C)(C)[C@@H]5CC[C@]43C)[C@@H]12` [Example B5, 4-((1S,3aS,5aR,5bR,7aS,9S,11aS,11bR,13aR,13bR)-3a-((2-(dimethylamino)ethyl)amino)-1-isopropyl-5a,5b,8,8,11a-pentamethylicosahydro-1H-cyclopenta[a]chrysen-9-yl)benzoic acid] the figure was < 100 nM.

With `C=C(C)[C@@H]1CC[C@]2(NC)CC[C@]3(C)[C@H](CC[C@@H]4[C@@]5(C)CC=C(c6ccc(C(=O)O)cc6)C(C)(C)[C@@H]5CC[C@]43C)[C@@H]12` [Example 176, 4-((1R,3aS,5aR,5bR,7aR,11aS,11bR,13aR,13bR)-5a,5b,8,8,11a-pentamethyl-3a-(methylamino)-1-(prop-1-en-2-yl)-2,3,3a,4,5,5a,5b,6,7,7a,8,11,11a,11b,12,13,13a,13b-octadecahydro-1H-cyclopenta[a]chrysen-9-yl)benzoic acid, HCl], the EC50 (luciferase activity in cells infected for 4-5 days with NLRluc recombinants, class symbols (key in Table 1)) is < 100 nM. As to `C=C(C)[C@@H]1CC[C@]2(NCc3ccsc3)CC[C@]3(C)[C@H](CC[C@@H]4[C@@]5(C)CC=C(c6ccc(C(=O)O)cc6)C(C)(C)[C@@H]5CC[C@]43C)[C@@H]12` [Example 158, 4-((1R,3aS,5aR,5bR,7aR,11aS,11bR,13aR,13bR)-5a,5b,8,8,11a-pentamethyl-1-(prop-1-en-2-yl)-3a-(thiophen-3-ylmethylamino)-2,3,3a,4,5,5a,5b,6,7,7a,8,11,11a,11b,12,13,13a,13b-octadecahydro-1H-cyclopenta[a]chrysen-9-yl)benzoic acid], under setting [1], the EC50 is < 100 nM. On to `C=C(C)[C@@H]1CC[C@]2(NCCNc3ccccn3)CC[C@]3(C)[C@H](CC[C@@H]4[C@@]5(C)CC=C(c6ccc(C(=O)O)cc6)C(C)(C)[C@@H]5CC[C@]43C)[C@@H]12` [Example 188, 4-((1R,3aS,5aR,5bR,7aR,11aS,11bR,13aR,13bR)-5a,5b,8,8,11a-pentamethyl-1-(prop-1-en-2-yl)-3a-(2-(pyridin-2-ylamino)ethylamino)-2,3,3a,4,5,5a,5b,6,7,7a,8,11,11a,11b,12,13,13a,13b-octadecahydro-1H-cyclopenta[a]chrysen-9-yl)benzoic acid], for which the half-maximal effective concentration (EC50) under setting [2] turned out to be 1 nM.

With `C=C(C)[C@@H]1CC[C@]2(NC(=O)N3CCN([C@@H]4COC[C@H]4N(C)C)CC3)CC[C@]3(C)[C@H](CC[C@@H]4[C@@]5(C)CC=C(c6ccc(C(=O)O)cc6)C(C)(C)[C@@H]5CC[C@]43C)[C@@H]12` [Example 9, 4-((1R,3aS,5aR,5bR,7aR,11aS,11bR,13aR,13bR)-3a-(4-((3S,4S)-4-(dimethylamino)tetrahydrofuran-3-yl)piperazine-1-carboxamido)-5a,5b,8,8,11a-pentamethyl-1-(prop-1-en-2-yl)-2,3,3a,4,5,5a,5b,6,7,7a,8,11,11a,11b,12,13,13a,13b-octadecahydro-1H-cyclopenta[a]chrysen-9-yl)benzoic acid], the EC50 under setting [2] was 3 nM. Turning to `C=C(C)[C@@H]1CC[C@]2(NC(=O)CN3CCS(=O)(=O)CC3)CC[C@]3(C)[C@H](CC[C@@H]4[C@@]5(C)CC=C(c6ccc(C(=O)O)cc6)C(C)(C)[C@@H]5CC[C@]43C)[C@@H]12` [Example 82, benzoic acid, 4-[(1R,3aS,5aR,5bR,7aR,11aS,11bR,13aR,13bR)-3a-[[(1,1-dioxido-4-thiomorpholinyl)acetyl]amino]-2,3,3a,4,5,5a,5b,6,7,7a,8,11,11a,11b,12,13,13a,13b-octadecahydro-5a,5b,8,8,11a-pentamethyl-1-(1-methylethenyl)-1H-cyclopenta[a]chrysen-9-yl]], the EC50 under setting [1] was < 100 nM. Still for that read-out and setting: for `C=C(C)[C@@H]1CC[C@]2(NC(=O)CN(C)C3CCS(=O)(=O)C3)CC[C@]3(C)[C@H](CC[C@@H]4[C@@]5(C)CC=C(c6ccc(C(=O)O)cc6)C(C)(C)[C@@H]5CC[C@]43C)[C@@H]12` (stereo partly drawn) [Example 100, benzoic acid, 4-[(1R,3aS,5aR,5bR,7aR,11aS,11bR,13aR,13bR)-2,3,3a,4,5,5a,5b,6,7,7a,8,11,11a,11b,12,13,13a,13b-octadecahydro-5a,5b,8,8,11a-pentamethyl-1-(1-methylethenyl)-3a-[[[methyl(tetrahydro-1,1-dioxido-3-thienyl)amino]acetyl]amino]-1H-cyclopenta[a]chrysen-9-yl]] the value was < 100 nM; for `C=C(C)[C@@H]1CC[C@]2(NC(=O)N(CCN)CC(=O)O)CC[C@]3(C)[C@H](CC[C@@H]4[C@@]5(C)CC=C(c6ccc(C(=O)O)cc6)C(C)(C)[C@@H]5CC[C@]43C)[C@@H]12` [Example 58, 4-((1R,3aS,5aR,5bR,7aR,11aS,11bR,13aR,13bR)-3a-(3-(2-aminoethyl)-3-(carboxymethyl)ureido)-5a,5b,8,8,11a-pentamethyl-1-(prop-1-en-2-yl)-2,3,3a,4,5,5a,5b,6,7,7a,8,11,11a,11b,12,13,13a,13b-octadecahydro-1H-cyclopenta[a]chrysen-9-yl)benzoic acid], < 100 nM; for `C=C(C)[C@@H]1CC[C@]2(NCCF)CC[C@]3(C)[C@H](CC[C@@H]4[C@@]5(C)CC=C(c6ccc(C(=O)O)cc6)C(C)(C)[C@@H]5CC[C@]43C)[C@@H]12` [Example 179, 4-((1R,3aS,5aR,5bR,7aR,11aS,11bR,13aR,13bR)-3a-((2-fluoroethyl)amino)-5a,5b,8,8,11a-pentamethyl-1-(prop-1-en-2-yl)-2,3,3a,4,5,5a,5b,6,7,7a,8,11,11a,11b,12,13,13a,13b-octadecahydro-1H-cyclopenta[a]chrysen-9-yl)benzoic acid], < 100 nM. Same read-out and setting: for `C=C(C)[C@@H]1CC[C@]2(NCCN3CCN(C(C)=O)CC3)CC[C@]3(C)[C@H](CC[C@@H]4[C@@]5(C)CC=C(c6ccc(C(=O)O)cc6)C(C)(C)[C@@H]5CC[C@]43C)[C@@H]12` [Example B24, 4-((1R,3aS,5aR,5bR,7aR,11aS,11bR,13aR,13bR)-3a-((2-(4-acetylpiperazin-1-yl)ethyl)amino)-5a,5b,8,8,11a-pentamethyl-1-(prop-1-en-2-yl)-2,3,3a,4,5,5a,5b,6,7,7a,8,11,11a,11b,12,13,13a,13b-octadecahydro-1H-cyclopenta[a]chrysen-9-yl)benzoic acid] the value was < 100 nM.

For the origin of these results see patent US20140343000A1 (priority 2011, published 2014).
